In US8329688B2, “Trans-4-[[(5S)-5-[[[3,5-bis(trifluoromethyl)phenyl]methyl](2-methyl-2H-tetrazol-5-yl)amino]-2,3,4,5-tetrahydro-7,9-dimethyl-1H-1-benzazepin-1-yl]methyl]-cyclohexanecarboxylic acid” (Eli Lilly and Company, priority 2009, dated 2012):

Assay: IV and PO pharmacokinetics of CETP inhibitor compounds in male Sprague Dawley rats
Assay type: in vivo
Conditions: rat, 3 mg/kg PO, 1 mg/kg IV
Method: This following is to determine the pharmacokinetic parameters, including oral bioavailability, following a single 1 mg/kg intravenous bolus or a 3 mg/kg oral dose administration of the compound to male Sprague Dawley rats (n=4) in a crossover study design. The intravenous vehicle is 20% solutol microemulsion/80% deionized water. The oral vehicle is povidone USP 10%/SLS 0.5%/QS deionized water. In the intravenous arm, blood samples are collected at 0.08, 0.25, 0.5, 1, 2, 5, 8, 12, and 24 hours post-dose. In the oral arm, blood samples are collected at 0, 0.25, 0.5, 1, 2, 5, 8, 12, and 24 hours post-dose. Plasma is obtained by centrifugation, placed on ice, and frozen until samples are shipped on dry ice to Bioanalytical Systems, Inc. (BASi; West Lafayette, Ind.) for bioanalytical analysis. Concentrations of BCCA are determined by LC/MS/MS and pharmacokinetic parameters are calculated using a validated software program (Watson, Version 7.1). […]

F % (AUC Extrap.) ± sd: 8 ± 3%
SMILES: Cc1cc2c(c(C)c1C(F)(F)F)N(CC1CCC(CC(=O)O)CC1)CCC[C@@H]2N(Cc1cc(C(F)(F)F)cc(C(F)(F)F)c1)c1nnn(C)n1 (stereo partly drawn) [compound 15, (S)-(4-{5-[(3,5-Bis-trifluoromethyl-benzyl)-(2-methyl-2H-tetrazol-5-yl)-amino]-7,9-dimethyl-8-trifluoromethyl-2,3,4,5-tetrahydro-benzo[b]azepin-1-ylmethyl}-cyclohexyl)-acetic acid]
